From the METLIN SMRT retention time set (Domingo-Almenara et al. 2019)

Test: gradient 5% acetonitrile 3 min, to 50% in 2 min, to 85% in 15 min, held 3 min, 100 µL/min
Conditions: column: Zorbax Extend-C18 2.1 x 50 mm; eluents: water / acetonitrile, 0.1% formic acid
Method in brief: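 Pure standards were run in mixtures of ~100 molecules by HPLC coupled to a quadrupole time-of-flight mass spectrometer. The column was a Zorbax Extend-C18 (2.1 × 50 mm, 1.8 μm) at 100 μL/min, with water and acetonitrile each containing 0.1% formic acid, in positive and negative ionization mode. Dead and dwell volumes were 40 μL and 900 μL. Retention time was taken from computationally picked adduct peaks, each manually inspected, with data collected over 3 months.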

Row | RP-LC retention time | SMILES
1 | 919 s | Cc1ccc2c(c1)cc(S(=O)(=O)c1ccccc1)c(=O)n2CC(=O)N1CCCCC1
2 | 776 s | CCn1c(=O)c2ccn(CC(=O)N3CCCc4ccccc43)c2n(CC)c1=O
3 | 703 s | O=C(Nc1cccc(Br)c1)N1CCN(Cc2nc3cccnc3n2-c2ccccc2)CC1
4 | 896 s | Cc1nc(-c2noc(-c3ccc(F)cc3)n2)cn1CC(=O)NCc1ccc(Cl)cc1
5 | 1030 s | O=C(NCc1ccccc1Cl)c1nnc(-c2ccc(S(=O)(=O)N3CCCCC3)cc2)o1
6 | 876 s | Cc1ccc(C(=O)Nc2ccc3c(c2)Sc2ncccc2C(=O)N3C)cc1C
7 | 620 s | CCc1nc2c(=O)n(CC(=O)N3CCCC3)nc(C)c2s1
8 | 681 s | O=C(c1ccsc1)N1CCCCC1c1nncn1CC1CC1 (stereo not given)
9 | 947 s | Fc1ccc(OCc2nnc3sc(-c4cccc(F)c4)nn23)cc1
10 | 1230 s | CCOc1ccc(-c2nc(-c3ccc4c(c3)oc(=O)n4C(C)C)no2)cc1
11 | 604 s | O=C(O)c1cc(-c2ccco2)n(C2CCS(=O)(=O)C2)n1 (stereo not given)
12 | 812 s | CCOc1ccc(C(=O)N2CCN(c3cc(-c4cccs4)[nH]n3)CC2)cc1
13 | 856 s | Cn1nc(C(=O)NCc2ccc3c(c2)OCO3)c2c1CCN(C(=O)COc1ccc(Cl)cc1)C2
14 | 883 s | Cc1nc(-c2ccccc2OC2CN(S(=O)(=O)c3cccc4nsnc34)C2)no1
15 | 830 s | O=C(C1=CN(c2ccc(Cl)cc2)c2cc(F)ccc2S1(=O)=O)N1CCOCC1
16 | 764 s | CCC(=O)N1CCc2cc(-c3ccc(C(=O)N4CCN(C(=O)c5ccco5)CC4)cc3)ccc21
17 | 642 s | COCc1nncn1C1CN(C(=O)Cc2ccc(Cl)cc2)C1
18 | 1080 s | O=C(NCc1ccccc1)c1cc2sccc2n1Cc1ccc(F)cc1
19 | 694 s | COc1ccccc1CNC(=O)Cn1nc2c(N3CCCCCC3)nccn2c1=O
20 | 963 s | COc1ccc(N2C(=O)C3N=NN(Cc4nc(-c5ccc(Cl)cc5)no4)C3C2=O)cc1OC (stereo not given)

Row | RP-LC retention time | SMILES
21 | 660 s | Cc1ccc2c(C(=O)NCc3ccc(F)cc3F)cc(NC(=O)C(C)C)cc2n1
22 | 574 s | COc1cn(CC(=O)Nc2cccc(C)c2C)c(CN2CCCCCC2)cc1=O
23 | 673 s | CNC(=O)C1CCN(C(=O)Nc2ccc(NC(=O)Nc3ccc(C)cc3C)cc2)CC1
24 | 745 s | O=c1n(Cc2ccccc2F)nc2c(S(=O)(=O)N3CCOCC3)cccn12
25 | 660 s | Cc1ccc2c(C)nc(NC3=NCN(CC4CCCO4)CN3)nc2c1 (stereo not given)
26 | 692 s | CC(C)CN1CCN(S(=O)(=O)c2ccc(-c3nnc(C4CCCC4)o3)o2)CC1
27 | 795 s | O=C1CCN(S(=O)(=O)c2ccccc2)CCCN(S(=O)(=O)c2cccc(F)c2)CCN1
28 | 898 s | CCOc1ccc(NC(=O)N2CCc3cn(CCOC)c4cccc(c34)C2)cc1
29 | 783 s | CC[C@H](C)Nc1c(C(=O)OC)c(=O)[nH]c2c(Cl)cccc12
30 | 882 s | CC1(C(=O)NC2CCCCCC2)CN(S(C)(=O)=O)CC(=O)N1c1cccc(Cl)c1 (stereo not given)
31 | 707 s | CCOc1ccc(S(=O)(=O)N2CCC(C(=O)NCCCO)CC2)cc1C
32 | 961 s | CSc1ccc(CNC(=O)CCC(=O)N2Cc3cccn3-c3ccccc32)cc1
33 | 1040 s | O=C(NCc1ccc(F)cc1F)c1nnn2c1COC(c1ccc(Cl)cc1)C2 (stereo not given)
34 | 716 s | O=C1OCC/C1=C\OCCCO/C=C1\CCOC1=O
35 | 880 s | Cc1nc(-c2csc(S(=O)(=O)N3CCCC(C(=O)Nc4ccc5c(c4)OCCO5)C3)c2)no1 (stereo not given)
36 | 898 s | CC(C)n1cnc(S(=O)(=O)N2CCCC(C(=O)Nc3cccc(Br)c3)C2)c1 (stereo not given)
37 | 981 s | Cc1cccc(NC(=O)N2CCCC2c2nc(-c3ccc(F)cc3F)no2)c1C (stereo not given)
38 | 665 s | COc1ccc(-c2cc3n(n2)CCCN(C(=O)c2cccnc2)C3)cc1
39 | 604 s | COc1ccc(C(=O)Nc2ccc(-c3cn4ccc(C)nc4n3)cc2)cc1OC

The next lines start with the molecule.

Row | SMILES | RP-LC retention time
40 | CC(C)(C)NC(=O)CCc1c(-c2ccc(Br)cc2)nc2ccccn12 | 681 s
41 | CCc1nc2cc3c(cc2n1CC(=O)Nc1cccc(OC)c1)OCCO3 | 660 s
42 | Cc1noc([C@@H]2CN(C(=O)Cc3ccsc3)C[C@H]2C(N)=O)n1 | 618 s
43 | CCCc1ccc(S(=O)(=O)Nc2ccc3nc(S(=O)(=O)CC)sc3c2)cc1 | 1020 s
44 | CCCN1C(=O)c2c(C(=O)NCc3ccccc3)ncn2CC1(C)C(=O)NCCC(C)C (stereo not given) | 817 s
45 | Cc1cc(C)c2c(N3CCCC3)nc(C(=O)Nc3ccc4c(c3)OCO4)nc2n1 | 656 s
46 | Cc1ccc(CC(=O)Nc2cnn(C)c(=O)c2N2CCOCC2)cc1 | 764 s
47 | C=CCn1c(-c2ccc(OC)cc2)nc2nc3ccccc3nc21 | 813 s
48 | Cc1oc(-c2[nH]ncc2C(=O)N(C)C)cc1S(=O)(=O)NC1CCCC1 | 650 s
49 | CC(C)n1c(N2CCCN(C(=O)c3ccco3)CC2)cc(=O)n(C(C)C)c1=O | 756 s
50 | COc1cc(NC(=O)COc2cc(C)nc(N3CCN(c4ccccc4)CC3)n2)cc(OC)c1 | 821 s
51 | COc1ccc(-n2ccc(=O)c(-c3nc(-c4ccccc4)no3)n2)cc1 | 856 s
52 | CCc1noc(-c2ccc(-n3ncc(C(=O)NC4CCCCC4)c3C)nc2)n1 | 1020 s
53 | CCc1ccc(NC(=O)Cn2cnc3nc(N4CCCC(C(=O)NC(C)C)C4)sc3c2=O)cc1 (stereo not given) | 710 s
54 | CCOc1ccc(NS(=O)(=O)c2cc3c4c(c2)CCC(=O)N4CCC3)cc1 | 818 s
55 | CCOC(=O)C(=O)NCc1nc(COc2ccc(OC)cc2)no1 | 716 s
56 | CCN(CC)C(=O)N1CC(n2cc(C(=O)N3CCCC3)nn2)C1 | 646 s
57 | Cc1ccc(F)cc1NC(=O)Cn1cnc(C)c(C)c1=O | 660 s
58 | COc1ccc(NC(=O)Nc2cc(-c3cn4cccnc4n3)ccc2OC)cc1 | 651 s
59 | O=C(CC1CCN(C(=O)Nc2ccc(F)cc2F)CC1)N1CCCCC1 | 722 s
60 | Cc1ccc(-c2nc(-c3ccc4c(c3)oc(=O)n4C(C)C)no2)cc1C | 1130 s
61 | CC1Cc2ccccc2N1C(=O)c1ccc(=O)n(CCC(=O)N2CCN(C3CCCCC3)CC2)n1 (stereo not given) | 654 s
62 | NC(C(=O)N[C@@H]1C(=O)N2C(C(=O)O)=C(Cl)CS[C@H]12)c1ccccc1 (stereo not given in full) | 563 s
63 | Cc1nnc(-c2ccc3ccn(CC(=O)NCCCc4ccccc4)c3c2)o1 | 807 s
64 | CCn1c(=O)n(CC)c2cc(S(=O)(=O)c3ccccc3)c(NC(=O)CC(C)C)cc21 | 937 s
65 | Cn1nc(-c2nnc(-c3ccc(F)cc3)o2)c2c1CCN(S(=O)(=O)c1cccc(C#N)c1)C2 | 891 s
